Data taken from patent publication US20120171123A1, “USES AND COMPOSITIONS FOR TREATMENT OF RHEUMATOID ARTHRITIS” (priority 2006, published 2012).

Key:
[1] = system: MTX-naïve adult patients with early RA (<3 years); assay: Study J: SF-36 (domains, PCS, MCS) with criteria- and content-based interpretation; format: in vivo, human; set-up: key to mean SF-36 PCS score / SF-36 Role-Physical score / SF-36 Bodily Pain score / SF-36 General Health score / SF-36 Vitality score / SF-36 Social Functioning score / SF-36 Role-Emotional score / SF-36 Mental Health score / SF-36 PCS score / SF-36 MCS score / SF-36 Physical Functioning score: scale 0-100, higher = better health-related quality of life; conditions: for SF-36 Bodily Pain score / SF-36 General Health score / SF-36 MCS score / SF-36 Mental Health score / SF-36 PCS score / SF-36 Physical Functioning score / SF-36 Role-Emotional score / SF-36 Role-Physical score / SF-36 Social Functioning score / SF-36 Vitality score: LOCF
From the text: Study J was a 2-year, double-blind, active comparator-controlled, Phase III study conducted at many sites worldwide.
The SF-36 was used to assess the 8 domains of HRQOL—physical functioning, role-physical, bodily pain, general health, vitality, social functioning, role-emotional, and mental health. These 8 domains were aggregated into Physical Component Summary (PCS) and Mental Component Summary (MCS) scores. The SF-36 has a scale of 0-100, with higher scores indicating better health-related quality of life.
Minimum clinically important differences (MCID) are defined as improvements of 5-10 points in the individual domains scores and 2.5-5 points in the PCS and MCS^5.
All HRQOL domains were measured at baseline, and after 12, 26, 42, 52, 76, and 104 weeks of therapy. In this analysis, mean scores and mean changes in each HRQOL domain are reported, as well as the PCS and MCS, at Weeks 12 and 104. Criteria-based interpretation was used to understand the meaning of differences in PCS scores for work loss and resource use and content-based interpretation for specific SF-36 items.^4
Study J was a 2-year, double-blind, active comparator-controlled, Phase III study conducted at 149 sites in North America, Europe, and Australia. […] The SF-36 was used to assess the 8 domains of HRQOL—physical functioning, role-physical, bodily pain, general health, vitality, social functioning, role-emotional, and mental health. These 8 domains were aggregated into Physical Component Summary (PCS) and Mental Component Summary (MCS) scores. The SF-36 has a scale of 0-100, with higher scores indicating better health-related quality of life. Minimum clinically important differences (MCID) are defined as improvements of 5-10 points in the individual domains scores and 2.5-5 points in the PCS and MCS (Kosinski M, et al. Arthritis Rheum 2000:43:1478-87). All HRQOL domains were measured at baseline, and after 12, 26, 42, 52, 76, and 104 weeks of therapy. In this analysis, we report mean scores and mean changes in each HRQOL domain, as well as the PCS and MCS, at Weeks 12 and 104. We used criteria-based interpretation to understand the meaning of differences in PCS scores for work loss and resource use and content-based interpretation for specific SF-36 items (Weinblatt M E, et al. Arthritis Rheum 2003; 48:35-45).

[2] = system: MTX-naïve adult patients with early RA (<3 years); assay: Study J: HAQ DI; format: in vivo, human; conditions: for HAQ DI mean change from baseline: LOCF
From the text: The Health Assessment Questionnaire Disability Index (HAQ DI) is a disease-specific tool that measures patient-reported physical function in 8 categories corresponding to normal activities in daily living. Fatigue is an important yet still often overlooked systemic symptom of RA. The Functional Assessment of Chronic Illness Therapy-Fatigue (FACIT-F) tool, measured by a 13-item, validated scale, assesses the impact of a disease and its therapy on fatigue.
Study J is described in detail in the above examples. The Health Assessment Questionnaire Disability Index (HAQ DI) and Functional Assessment of Chronic Illness Therapy-Fatigue (FACIT-F) were assessed at baseline, and following 12, 26, 42, 52, 76, and 104 weeks of therapy. Changes in scores were computed by subtracting the baseline from post-treatment score for each patient; mean changes were reported for each treatment group. The HAQ DI is assessed on a scale of 0-3, with higher numbers indicating greater disability. The minimum clinically important difference (MCID) is defined as changes ≧0.22 (Goldsmith C H, et al. J Rheumatol 1993; 20-561-5). The FACIT-F is assessed on a scale of 0-52, with higher scores indicating less fatigue. Changes of ≧4 are considered clinically meaningful (Cella D, et al. J Pain Symptom Manage 2002:24:547-61).

[3] = Baseline, percentages based on general US population norms
[4] = Week 104, percentages based on general US population norms

With `CN(Cc1cnc2nc(N)nc(N)c2n1)c1ccc(C(=O)N[C@@H](CCC(=O)O)C(=O)O)cc1` [mtx alone, methotrexate] the “SF-36 Bodily Pain score” value ([1]; Baseline) was 29.9, the “SF-36 General Health score” value ([1]; Baseline) was 49.7 and the “SF-36 MCS score” value ([1]; Baseline) was 43.5. For the same compound, the “SF-36 Mental Health score” value ([1]; Baseline) was 62.1, the “SF-36 PCS score” value ([1]; Baseline) was 32.2 and the “SF-36 Physical Functioning score” value ([1]; Baseline) was 38.9. For the same compound, the “SF-36 Role-Emotional score” value ([1]; Baseline) was 41.1, the “SF-36 Role-Physical score” value ([1]; Baseline) was 16.4 and the “SF-36 Social Functioning score” value ([1]; Baseline) was 56.5. For the same compound, the “SF-36 Vitality score” value ([1]; Baseline) was 37.1, the “Interpretation of SF-36 PCS, Content-Based: Climb stairs” value [1, 3] was 66.4% and the “Interpretation of SF-36 PCS, Content-Based: Difficulty working” value [1, 3] was 88.1%. The “Interpretation of SF-36 PCS, Content-Based: Have energy” value [1, 3] was 9.7%, the “Interpretation of SF-36 PCS, Content-Based: Time off work” value [1, 3] was 64.8% and the “Interpretation of SF-36 PCS, Content-Based: Walk on block” value [1, 3] was 44.4%. The “Interpretation of SF-36 PCS, criteria-based: Hospitalized” value [1, 3] was 10.7%, the “Interpretation of SF-36 PCS, criteria-based: Job loss” value [1, 3] was 30.3% and the “Interpretation of SF-36 PCS, criteria-based: MD visit” value [1, 3] was 47.7%. The “Interpretation of SF-36 PCS, criteria-based: Not work” value [1, 3] was 44.1%, the “SF-36 Bodily Pain score” value ([1]; Week 12) was 51.0 and the “SF-36 General Health score” value ([1]; Week 12) was 58.9. The “SF-36 MCS score” value ([1]; Week 12) was 49.0, the “SF-36 Mental Health score” value ([1]; Week 12) was 71.2 and the “SF-36 PCS score” value ([1]; Week 12) was 38.3. For the same compound, the “SF-36 Physical Functioning score” value ([1]; Week 12) was 51.1, the “SF-36 Role-Emotional score” value ([1]; Week 12) was 60.5 and the “SF-36 Role-Physical score” value ([1]; Week 12) was 40.4. For the same compound, the “SF-36 Social Functioning score” value ([1]; Week 12) was 72.0, the “SF-36 Vitality score” value ([1]; Week 12) was 51.6 and the “SF-36 Bodily Pain score” value ([1]; Week 104) was 57.0. The “SF-36 General Health score” value ([1]; Week 104) was 68.3, the “SF-36 MCS score” value ([1]; Week 104) was 49.9 and the “SF-36 Mental Health score” value ([1]; Week 104) was 72.9. The “SF-36 PCS score” value ([1]; Week 104) was 41.2, the “SF-36 Physical Functioning score” value ([1]; Week 104) was 58.9 and the “SF-36 Role-Emotional score” value ([1]; Week 104) was 64.5. For the same compound, the “SF-36 Role-Physical score” value ([1]; Week 104) was 48.6, the “SF-36 Social Functioning score” value ([1]; Week 104) was 75.5 and the “SF-36 Vitality score” value ([1]; Week 104) was 56.9. The “Interpretation of SF-36 PCS, Content-Based: Climb stairs” value [1, 4] was 30.7%, the “Interpretation of SF-36 PCS, Content-Based: Difficulty working” value [1, 4] was 51.2% and the “Interpretation of SF-36 PCS, Content-Based: Have energy” value [1, 4] was 26.6%. The “Interpretation of SF-36 PCS, Content-Based: Time off work” value [1, 4] was 29.8%, the “Interpretation of SF-36 PCS, Content-Based: Walk on block” value [1, 4] was 21.4% and the “Interpretation of SF-36 PCS, content-based: Climb stairs” value [1, 4] was 30.7%. For the same compound, the “Interpretation of SF-36 PCS, content-based: Difficulty working” value [1, 4] was 61.2%, the “Interpretation of SF-36 PCS, content-based: Have energy” value [1, 4] was 26.6% and the “Interpretation of SF-36 PCS, content-based: Time off work” value [1, 4] was 29.8%. For the same compound, the “Interpretation of SF-36 PCS, content-based: Walk on block” value [1, 4] was 21.4%, the “Interpretation of SF-36 PCS, criteria-based: Hospitalized” value [1, 4] was 7.7% and the “Interpretation of SF-36 PCS, criteria-based: Job loss” value [1, 4] was 20.8%. The “Interpretation of SF-36 PCS, criteria-based: MD visit” value [1, 4] was 34.6%, the “Interpretation of SF-36 PCS, criteria-based: Not work” value [1, 4] was 24.2% and the “mean SF-36 PCS score” value ([1]; week 12 (baseline 31.7 combination, 32.2 MTX)) was 38.3. The “HAQ DI mean score” value ([2]; Baseline) was 1.48, the “HAQ DI mean change from baseline” value ([2]; ΔWeek 12) was −0.53 and the “HAQ DI mean change from baseline” value ([2]; ΔWeek 26) was −0.67. The “HAQ DI mean change from baseline” value ([2]; ΔWeek 42) was −0.68, the “HAQ DI mean change from baseline” value ([2]; ΔWeek 52) was −0.69 and the “HAQ DI mean change from baseline” value ([2]; ΔWeek 76) was −0.68. For the same compound, the “HAQ DI mean change from baseline” value ([2]; ΔWeek 104) was −0.68.
